The values below come from patent US7417045B2, “Heterocyclic substituted pyridine or phenyl compounds with CXCR3 antagonist activity” (Schering Corporation, priority 2005, dated 2008).

In the experiment the target is T1, human CXCR3 (N-delta 4) (Homo sapiens, UniProt P49682).
T1 construct: CD8 leader (N); Flag tag; expressed in transfected cells; membranes
T1 sequence (P49682 5-368 limits assumed): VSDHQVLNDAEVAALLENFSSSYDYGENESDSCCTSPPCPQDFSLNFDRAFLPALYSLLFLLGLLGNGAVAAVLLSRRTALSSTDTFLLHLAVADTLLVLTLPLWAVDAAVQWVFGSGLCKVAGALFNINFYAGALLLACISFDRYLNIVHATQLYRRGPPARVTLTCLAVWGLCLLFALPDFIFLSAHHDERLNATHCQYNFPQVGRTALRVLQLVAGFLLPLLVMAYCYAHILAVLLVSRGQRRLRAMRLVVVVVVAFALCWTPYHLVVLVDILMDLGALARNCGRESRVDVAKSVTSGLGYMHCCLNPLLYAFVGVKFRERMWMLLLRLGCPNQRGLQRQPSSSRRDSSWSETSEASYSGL
Kind of experiment: Human CXCR3 (N-delta 4) Scintillation Proximity Assay (SPA), [125I] IP-10 binding. The conditions noted are these: IC50 rating; [125I] IP-10 displacement, Ba/F3-hCXCR3 (N-delta 4) membranes. The text has this:
The inventive compounds can readily be evaluated to determine activity at The CXCR3 receptors by known methods, such as, for example, Development of Human CXCR3 (N-delta 4) Binding Assay.
Cloning and Expression of Human CXCR3 (N-Delta 4):
The DNA encoding human CXCR3 was cloned by PCR using human genomic DNA (Promega, Madison, Wis.) as a template. The PCR primers were designed based on the published sequence of human orphan receptor GPR9 (1) with incorporated restriction sites, a Kozak consensus sequence, CD8 leader and Flag tag. The PCR product was subcloned into the mammalian expression vector pME18Sneo, a derivative of the SR-alpha expression vector (designated as pME18Sneo-hCXCR3 (N-delta 4).
IL-3-dependent mouse pro-B cells Ba/F3 were transfected by electroporation in 0.4 ml Dulbecco's PBS containing 4×10^6 cells with 20 μg of pME18Sneo-hCXCR3 (N-delta 4) plasmid DNA. Cells were pulsed at 400 Volts, 100 OHMs, 960 μFd. The transfected cells were under selection with 1 mg/ml G418 (Life Technologies, Gaithersburg, Md.). G418-resistant Ba/F3 clones were screened for CXCR3 expression by specific binding of [^125I] IP-10 (NEN Life Science Products, Boston, Mass.).
Preparation of Ba/F3-hCXCR3 (N-Delta 4) Membranes
Ba/F3 cells expressing human CXCR3 (N-delta 4) were pelleted and resuspended in the lysis buffer containing 10 mM HEPES, pH 7.5 and Complete® protease inhibitors (1 tablet per 100 ml) (Boehringer Mannheim, Indianapolis, Ind.) at a cell density of 20×10^6 cells per ml. After 5 minutes incubation on ice, cells were transferred to 4639 cell disruption bomb (Parr Instrument, Moline, Ill.) and applied with 1,500 psi of nitrogen for 30 minutes on ice. Large cellular debris was removed by centrifugation at 1,000× g. Cell membrane in the supernatant was sedimented at 100,000× g. The membrane was resuspended in the lysis buffer supplemented with 10% sucrose and stored at −80° C. Total protein concentration of the membrane was determined by BCA method from Pierce (Rockford, Ill.).
Human CXCR3 (N-Delta 4) Scintillation Proximity Assay (SPA)
For each assay point, 2 μg of membrane was preincubated for 1 hr with 300 μg wheat germ agglutinin (WGA) coated SPA beads (Amersham, Arlington Heights, Ill.) in the binding buffer (50 mM HEPES, 1 mM CaCl2, 5 mM MgCl2, 125 mM NaCl, 0.002% NaN3, 1.0% BSA) at room temperature. The beads were spun down, washed once, resuspended in the binding buffer and transferred to a 96-well Isoplate (Wallac, Gaithersburg, Md.). 25 pM of [^125I] IP-10 with tested compounds in a series of titration were added to start the reaction. After 3 hr reaction at room temperature, the amount of [^125I] IP-10 bound to the SPA beads was determined with a Wallac 1450 Microbeta counter.

As a reminder, the IC50 is the concentration that inhibits the measured activity by half. High values mean weaker potency, low ones greater potency.

`CC[C@H]1CN(c2ncc(C3=NCCN3)cc2Cl)CCN1C1CCN(Cc2ccc(Cl)cc2C(=O)NCCO)CC1` [Compound 94]: the IC50 is less than 0.025 µM.

`CC[C@H]1CN(c2ncc(-c3ncc[nH]3)cc2Cl)CCN1C1CCN(CCC(=O)c2ccc(Cl)cc2)CC1` [Compound 95]: the IC50 was less than 0.025 µM.

Take `CC[C@H]1CN(c2ncc(-c3nc4cc(F)ccc4[nH]3)cc2Cl)CCN1C1CCN(Cc2ccc(Cl)cc2F)CC1` [Compound 96]: the IC50 is less than 0.025 µM.

`CC[C@H]1CN(c2ncc(-c3ncc[nH]3)cc2Cl)CCN1C1CCN([C@@H](C(=O)N(C)C)c2ccc(Cl)cc2)CC1` [Compound 97] yielded an IC50 of less than 0.025 µM.

As to `CC[C@H]1CN(c2ncc(-c3nnc(C(C)(C)O)o3)cc2Cl)CCN1C1CCN(Cc2ccc(Cl)cc2F)CC1` [Compound 98], the IC50 was less than 0.025 µM.

`CC[C@H]1CN(c2ncc(-c3ncc[nH]3)cc2Cl)CCN1C1CCN([C@@H](C(=O)NCC(F)(F)F)c2ccc(Cl)cc2)CC1` [Compound 99] gave an IC50 of less than 0.025 µM.

For `CC[C@H]1CN(c2ncc(-c3ncc[nH]3)cc2Cl)CCN1C1CCN(Cc2ccc(C#CCN(C)C)cc2)CC1` [Compound 100], the IC50 is less than 0.025 µM.

For `CC[C@H]1CN(c2ncc(-c3ncc[nH]3)cc2Cl)CCN1C1CCN(Cc2ccc(C#CC(C)(C)NC(=O)OC(C)(C)C)cc2)CC1` [Compound 101], the IC50 was less than 0.025 µM.

Regarding `CC[C@H]1CN(c2ncc(-c3ncc[nH]3)cc2Cl)CCN1C1CCN(C(=O)c2ccc(-n3cccn3)cc2)CC1` [Compound 102], the IC50 was 0.025 to 0.1 µM.

As for `CC[C@H]1CN(c2ncc(-c3ncc[nH]3)cc2Cl)CCN1C1CCN(CCCCc2ccc(Cl)cc2)CC1` [Compound 103], the IC50 is 0.025 to 0.1 µM.

Turning to `CC[C@H]1CN(c2ncc(C3=NCCN3)cc2Cl)CCN1C1CCN(C(=O)c2ccc(C#CC(C)(C)O)cc2)CC1` [Compound 104], the IC50 lay in the range of 0.025 to 0.1 µM.

Consider `CC[C@H]1CN(c2ncc(C3=NC(C)(C)CN3)cc2Cl)CCN1C1CCN(C(=O)c2ccc(Cl)cc2)CC1` [Compound 105], for which the IC50 lay in the range of 0.025 to 0.1 µM.

Compound `CC[C@H]1CN(c2ncc(-c3nnc(CO)o3)cc2Cl)CCN1C1CCN(Cc2ccc(Cl)cc2F)CC1` [Compound 106] gave an IC50 of 0.025 to 0.1 µM.

For the compound `CC[C@H]1CN(c2ncc(-c3ncc[nH]3)cc2Cl)CCN1C1CCN([C@@H](C(=O)NCC2CC2)c2ccc(Cl)cc2)CC1` [Compound 107], the IC50 is 0.025 to 0.1 µM.

With `CC[C@H]1CN(c2ncc(-c3cnco3)cc2Cl)CCN1C1CCN(Cc2ccc(Cl)cc2)CC1` [Compound 108], the IC50 lay within 0.025 to 0.1 µM.

Compound `CC[C@H]1CN(c2ncc(-c3ncc[nH]3)cc2Cl)CCN1C1CCN(C(=O)c2ccc(-c3csnn3)cc2)CC1` [Compound 109] registered an IC50 of 0.025 to 0.1 µM.

The compound `C[C@H]1CN(c2ncc(-c3nc4ccccc4[nH]3)cc2Cl)CCN1C1CCN(Cc2ccc(Cl)cc2)CC1` [Compound 110] had an IC50 of 0.025 to 0.1 µM.

`CC[C@H]1CN(c2ncc(-c3ncc[nH]3)cc2Cl)CCN1C1CCN(C(=O)c2ccc(C(C)=O)cc2)CC1` [Compound 111] registered an IC50 of 0.025 to 0.1 µM.

In turn, `CC[C@H]1CN(c2ncc(-c3ncc[nH]3)cc2Cl)CCN1C1CCN(C(=O)c2ccc(-n3cncn3)nc2)CC1` [Compound 112] registered an IC50 of 0.025 to 0.1 µM.

Take `CC[C@H]1CN(c2ncc(-c3ncc[nH]3)cc2Cl)CCN1C1CCN(C(=O)c2ccc(C#CC(C)(C)O)cc2)CC1` [Compound 113]: the IC50 fell in the range of 0.025 to 0.1 µM.

`CC[C@H]1CN(c2ncc(-c3ncc[nH]3)cc2Cl)CCN1C1CCN(Cc2ccc(C#CC(C)(C)NS(N)(=O)=O)cc2)CC1` [Compound 114] yielded an IC50 of 0.025 to 0.1 µM.

For `CC[C@H]1CN(c2ncc(-c3cncn3C)cc2Cl)CCN1C1CCN(Cc2ccc(Cl)cc2)CC1` [Compound 115], the 50% inhibitory concentration (IC50) fell in the range of 0.025 to 0.1 µM.

The compound `CC[C@H]1CN(c2ncc(-c3ncc[nH]3)cc2Cl)CCN1C1CCN(C(C(=O)Nc2ccccn2)c2ccc(Cl)cc2)CC1` (stereo partly drawn) [Compound 116] returned an IC50 of 0.025 to 0.1 µM.

Turning to `CC[C@H]1CN(c2ncc(-c3ncc[nH]3)cc2Cl)CCN1C1CCN(C(=O)c2ccc(-c3cnco3)cc2)CC1` [Compound 117], the IC50 fell in the range of 0.025 to 0.1 µM.

`CC[C@H]1CN(c2ncc(C3=NCCCN3)cc2Cl)CCN1C1CCN(C(=O)c2ccc(Cl)cc2)CC1` [Compound 118] had an IC50 of 0.025 to 0.1 µM.

With `CC[C@H]1CN(c2ncc(C3NC(=O)NC3=O)cc2Cl)CCN1C1CCN(Cc2ccc(Cl)cc2)CC1` (stereo partly drawn) [Compound 119], the IC50 was in the range of 0.025 to 0.1 µM.

Consider `CC[C@H]1CN(c2ncc(-c3nnc(C)o3)cc2Cl)CCN1C1CCN(C(=O)c2ccc(Br)cc2)CC1` [Compound 120], for which the concentration for half-maximal inhibition (IC50) lay within 0.025 to 0.1 µM.

For `CC[C@H]1CN(c2ncc(-c3nccn3S(C)(=O)=O)cc2Cl)CCN1C1CCN(Cc2ccc(Cl)cc2F)CC1` [Compound 121], the IC50 was in the range of 0.025 to 0.1 µM.

As to `CC[C@H]1CN(c2ncc(-c3nccn3C)cc2Cl)CCN1C1CCN(Cc2ccc(Cl)cc2F)CC1` [Compound 122], the IC50 was in the range of 0.025 to 0.1 µM.

Consider `CC[C@H]1CN(c2ncc(C3=NCCN3)cc2Cl)CCN1C1CCN(C(=O)c2ccc(C#CC(C)(C)NC(=O)OC(C)(C)C)cc2)CC1` [Compound 123], for which the IC50 is 0.025 to 0.1 µM.

The compound `CC[C@H]1CN(c2ncc(-c3nnc(CO)o3)cc2Cl)CCN1C1CCN(C(C(=O)OC)c2ccc(Cl)cc2)CC1` (stereo partly drawn) [Compound 124] yielded an IC50 of 0.025 to 0.1 µM.

In turn, `CC[C@H]1CN(c2ncc(-c3nc(C(O)C(F)(F)F)c[nH]3)cc2Cl)CCN1C1CCN(C(=O)c2ccc(Cl)cc2)CC1` (stereo partly drawn) [Compound 125] registered an IC50 of 0.025 to 0.1 µM.

Turning to `CC[C@H]1CN(c2ncc(-c3ncc[nH]3)cc2Cl)CCN1C1CCN(C(=O)c2ccc(OC(F)(F)F)cc2)CC1` [Compound 126], the IC50 was in the range of 0.025 to 0.1 µM.

In turn, `CC[C@H]1CN(c2ncc(-c3ncc[nH]3)cc2Cl)CCN1C1CCN([C@H](C(=O)OC)c2ccc(Br)cc2)CC1` [Compound 127] gave an IC50 of 0.025 to 0.1 µM.

The compound `CC[C@H]1CN(c2ncc(-c3ncc[nH]3)cc2Cl)CCN1C1(C)CCN(C(C(=O)OC)c2ccc(Cl)cc2)CC1` (stereo partly drawn) [Compound 128] returned an IC50 of 0.025 to 0.1 µM.

`CC[C@H]1CN(c2ncc(-c3nnco3)cc2Cl)CCN1C1CCN(C(=O)c2ccc(Br)cc2)CC1` [Compound 129] showed an IC50 of 0.025 to 0.1 µM.

Compound `CC[C@H]1CN(c2ncc(-c3ncc[nH]3)cc2Cl)CCN1C1(C)CCN(Cc2ccc(Cl)cc2C(=O)NC)CC1` [Compound 130] registered an IC50 of 0.025 to 0.1 µM.

Take `CC[C@H]1CN(c2ncc(C3=NCCN3)cc2Cl)CCN1C1CCN(Cc2ccc(C#CC(C)(C)NS(N)(=O)=O)cc2)CC1` [Compound 131]: the half-maximal inhibitory concentration (IC50) lay within 0.025 to 0.1 µM.

The compound `CC[C@H]1CN(c2ncc(-c3ncc[nH]3)cc2Cl)CCN1C1CCN(C(=O)c2ccc(-c3ccccc3)cc2)CC1` [Compound 132] registered an IC50 of more than 0.1 µM.

In turn, `CC[C@H]1CN(c2ncc(-c3ncc[nH]3)cc2Cl)CCN1C1CCN([C@H](C(=O)OC)c2ccc(Cl)cc2)CC1` [Compound 133] had an IC50 of more than 0.1 µM.

Turning to `CC[C@H]1CN(c2ncc(-c3ncc[nH]3)cc2Cl)CCN1C1CCN(Cc2ccc(C#CC(C)(C)N)cc2)CC1` [Compound 134], the IC50 is more than 0.1 µM.

For the compound `CC[C@H]1CN(c2ncc(-c3ncc[nH]3)cc2Cl)CCN1C1CCN(C(=O)c2ccc(-n3cncn3)cc2)CC1` [Compound 135], the IC50 was more than 0.1 µM.

Compound `CC[C@H]1CN(c2ncc(-c3ncc[nH]3)cc2Cl)CCN1C1CCN(C(=O)c2ccc(-n3c(C)ccc3C)cc2)CC1` [Compound 136] displayed an IC50 of more than 0.1 µM.

The compound `CC[C@H]1CN(c2ncc(-c3ncc[nH]3)cc2Cl)CCN1C1CCN(Cc2ccc(C#CC(C)(C)NS(C)(=O)=O)cc2)CC1` [Compound 137] yielded an IC50 of more than 0.1 µM.

As for `CC[C@H]1CN(c2ncc(-c3ncc[nH]3)cc2Cl)CCN1C1CCN(Cc2ccc3[nH]ccc3c2)CC1` [Compound 138], the IC50 was more than 0.1 µM.
